Laboratory results as given in PubChem BioAssay AID1919000 (Molecular Pharmacology Branch, DTP, NCI, 2023).

Test system: 653999-131-R-J2-PDC complex spheroids, growth % test/control
Experiment: Anticancer human tumor 653999-131-R-J2-PDC patient-derived lung adenocarcinoma cell line growth inhibition [AhR]
Details: for IC50: curve of first compound; for viability, T/C: stronger effect = lower value
Procedure, shortened: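 Spheroids combined tumor cells with HUVEC endothelial cells and human MSCs as stroma. AhR antagonists were paired with standard or investigational drugs, each dosed in half-log steps down from near clinical Cmax, or from 10 microM where Cmax was unknown.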
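Further: spheroids exposed to agents for seven days.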
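Wherever viability, T/C is given: 100% = DMSO vehicle control viability.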

For CC(C)c1c(-c2ccccc2)nc2c(C#N)c[nH]n2c1=O + Cc1cncc(-c2nc(NCCc3c[nH]c4ccccc34)c3ncn(C(C)C)c3n2)c1, the IC50 (second compound 0.1 µM) was > 10 µM, the IC50 (second compound 0.316 µM) was > 10 µM and the IC50 (second compound 1 µM) was > 10 µM. The IC50 (second compound 3.16 µM) was > 10 µM, the IC50 (second compound 10 µM) was > 10 µM and the viability, T/C (second compound 0.1 µM, first compound 0.0316 µM) was 112%. For the same molecule, the viability, T/C (second compound 0.1 µM, first compound 0.1 µM) was 99.8%, the viability, T/C (second compound 0.1 µM, first compound 0.316 µM) was 102% and the viability, T/C (second compound 0.1 µM, first compound 1 µM) was 95.8%. It also gave a viability, T/C (second compound 0.1 µM, first compound 3.16 µM) of 93.9%, a viability, T/C (second compound 0.1 µM, first compound 10 µM) of 102% and a viability, T/C (second compound 0.316 µM, first compound 0.0316 µM) of 115%. For the same molecule, the viability, T/C (second compound 0.316 µM, first compound 0.1 µM) was 114%, the viability, T/C (second compound 0.316 µM, first compound 0.316 µM) was 120% and the viability, T/C (second compound 0.316 µM, first compound 1 µM) was 104%. For the same molecule, the viability, T/C (second compound 0.316 µM, first compound 3.16 µM) was 97.7%, the viability, T/C (second compound 0.316 µM, first compound 10 µM) was 99.2% and the viability, T/C (second compound 1 µM, first compound 0.0316 µM) was 128%. It also gave a viability, T/C (second compound 1 µM, first compound 0.1 µM) of 118%, a viability, T/C (second compound 1 µM, first compound 0.316 µM) of 122% and a viability, T/C (second compound 1 µM, first compound 1 µM) of 136%. It also gave a viability, T/C (second compound 1 µM, first compound 3.16 µM) of 125%, a viability, T/C (second compound 1 µM, first compound 10 µM) of 116% and a viability, T/C (second compound 3.16 µM, first compound 0.0316 µM) of 128%. For the same molecule, the viability, T/C (second compound 3.16 µM, first compound 0.1 µM) was 117%, the viability, T/C (second compound 3.16 µM, first compound 0.316 µM) was 121% and the viability, T/C (second compound 3.16 µM, first compound 1 µM) was 115%. The viability, T/C (second compound 3.16 µM, first compound 3.16 µM) was 129%, the viability, T/C (second compound 3.16 µM, first compound 10 µM) was 120% and the viability, T/C (second compound 10 µM, first compound 0.0316 µM) was 63.2%. It also gave a viability, T/C (second compound 10 µM, first compound 0.1 µM) of 58.8%, a viability, T/C (second compound 10 µM, first compound 0.316 µM) of 62.6% and a viability, T/C (second compound 10 µM, first compound 1 µM) of 63.7%. For the same molecule, the viability, T/C (second compound 10 µM, first compound 3.16 µM) was 62.2% and the viability, T/C (second compound 10 µM, first compound 10 µM) was 63.7%.
